According to the supplement of paper PMC10307832:

Legend:
Test in all cases: relative viability (nuclei count vs DMSO), 5 days (fraction); higher = more cells survive
[1] = tested on: 201T
Outline: (§1)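 Relative viability is defined as nuclei in treated wells over nuclei in vehicle wells. Duplicate plates were run and medians reported. Lung cancer cell lines in 1536-well plates were dosed by pin tool one day after seeding, with one drug or with a fixed anchor-drug dose plus five library-drug doses (not always all listed) in √10 steps, and nuclei were counted after 5 days.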

[2] = tested on: BEN
Outline: as §1

[3] = tested on: EMC-BAC-2
Outline: as §1

[4] = tested on: HARA
Outline: as §1

[5] = tested on: HCC-44
Outline: as §1

[6] = tested on: LCLC-103H
Outline: as §1

[7] = tested on: LOU-NH91
Outline: as §1

[8] = tested on: NCI-H1395
Outline: as §1

[9] = tested on: NCI-H1666
Outline: as §1

[10] = tested on: NCI-H1993
Outline: as §1

[11] = tested on: NCI-H2009
Outline: as §1

[12] = tested on: NCI-H2023
Outline: as §1

[13] = tested on: NCI-H2087
Outline: as §1

[14] = tested on: NCI-H2126
Outline: as §1

[15] = tested on: NCI-H2347
Outline: as §1

[16] = tested on: NCI-H23
Outline: as §1

[17] = tested on: NCI-H3122
Outline: as §1

[18] = tested on: NCI-H441
Outline: as §1

[19] = tested on: NCI-H596
Outline: as §1

[20] = tested on: NCI-H647
Outline: as §1

[21] = tested on: NCI-H650
Outline: as §1

[22] = tested on: NCI-H727
Outline: as §1

[23] = tested on: NCI-H838
Outline: as §1

Structure (SMILES): NC(=O)Nc1cc(-c2cccc(F)c2)sc1C(=O)N[C@H]1CCCNC1 [AZD7762] + Nc1ncn([C@H]2C[C@H](O)[C@@H](CO)O2)c(=O)n1 [Decitabine] (partner 2 µM)
- relative viability ([1]; first compound 0.01 µM): 0.831
- relative viability ([1]; first compound 0.03162 µM): 0.872
- relative viability ([1]; first compound 0.1 µM): 0.903
- relative viability ([1]; first compound 0.3162 µM): 0.909
- relative viability ([1]; first compound 1 µM): 0.938
- relative viability ([2]; first compound 0.01 µM): 0.801
- relative viability ([2]; first compound 0.03162 µM): 0.984
- relative viability ([2]; first compound 0.1 µM): 0.874
- relative viability ([2]; first compound 0.3162 µM): 0.872
- relative viability ([2]; first compound 1 µM): 0.673
- relative viability ([3]; first compound 0.01 µM): 1.03
- relative viability ([3]; first compound 0.03162 µM): 1.01
- relative viability ([3]; first compound 0.1 µM): 1.09
- relative viability ([3]; first compound 0.3162 µM): 1.13
- relative viability ([3]; first compound 1 µM): 0.933
- relative viability ([4]; first compound 0.01 µM): 0.633
- relative viability ([4]; first compound 0.03162 µM): 0.507
- relative viability ([4]; first compound 0.1 µM): 0.66
- relative viability ([4]; first compound 0.3162 µM): 0.539
- relative viability ([4]; first compound 1 µM): 0.211
- relative viability ([5]; first compound 0.01 µM): 0.994
- relative viability ([5]; first compound 0.03162 µM): 0.959
- relative viability ([5]; first compound 0.1 µM): 1.01
- relative viability ([5]; first compound 0.3162 µM): 0.987
- relative viability ([5]; first compound 1 µM): 1.08
- relative viability ([6]; first compound 0.01 µM): 0.766
- relative viability ([6]; first compound 0.03162 µM): 0.824
- relative viability ([6]; first compound 0.1 µM): 0.764
- relative viability ([6]; first compound 0.3162 µM): 0.725
- relative viability ([6]; first compound 1 µM): 0.829
- relative viability ([7]; first compound 0.01 µM): 0.823
- relative viability ([7]; first compound 0.03162 µM): 0.796
- relative viability ([7]; first compound 0.1 µM): 0.816
- relative viability ([7]; first compound 0.3162 µM): 0.761
- relative viability ([7]; first compound 1 µM): 0.673
- relative viability ([8]; first compound 0.01 µM): 0.866
- relative viability ([8]; first compound 0.03162 µM): 0.727
- relative viability ([8]; first compound 0.1 µM): 0.65
- relative viability ([8]; first compound 0.3162 µM): 0.476
- relative viability ([8]; first compound 1 µM): 0.354
- relative viability ([9]; first compound 0.01 µM): 0.731
- relative viability ([9]; first compound 0.03162 µM): 0.907
- relative viability ([9]; first compound 0.1 µM): 0.924
- relative viability ([9]; first compound 0.3162 µM): 0.824
- relative viability ([9]; first compound 1 µM): 0.71
- relative viability ([10]; first compound 0.01 µM): 0.626
- relative viability ([10]; first compound 0.03162 µM): 0.606
- relative viability ([10]; first compound 0.1 µM): 0.657
- relative viability ([10]; first compound 0.3162 µM): 0.597
- relative viability ([10]; first compound 1 µM): 0.638
- relative viability ([11]; first compound 0.01 µM): 0.468
- relative viability ([11]; first compound 0.03162 µM): 0.417
- relative viability ([11]; first compound 0.1 µM): 0.373
- relative viability ([11]; first compound 0.3162 µM): 0.378
- relative viability ([11]; first compound 1 µM): 0.3
- relative viability ([12]; first compound 0.01 µM): 0.249
- relative viability ([12]; first compound 0.03162 µM): 0.25
- relative viability ([12]; first compound 0.1 µM): 0.179
- relative viability ([12]; first compound 0.3162 µM): 0.121
- relative viability ([12]; first compound 1 µM): 0.0986
- relative viability ([13]; first compound 0.01 µM): 0.313
- relative viability ([13]; first compound 0.03162 µM): 0.378
- relative viability ([13]; first compound 0.1 µM): 0.411
- relative viability ([13]; first compound 0.3162 µM): 0.475
- relative viability ([13]; first compound 1 µM): 0.332
- relative viability ([14]; first compound 0.01 µM): 0.562
- relative viability ([14]; first compound 0.03162 µM): 0.628
- relative viability ([14]; first compound 0.1 µM): 0.656
- relative viability ([14]; first compound 0.3162 µM): 0.789
- relative viability ([14]; first compound 1 µM): 0.741
- relative viability ([15]; first compound 0.01 µM): 0.558
- relative viability ([15]; first compound 0.03162 µM): 0.656
- relative viability ([15]; first compound 0.1 µM): 0.725
- relative viability ([15]; first compound 0.3162 µM): 0.79
- relative viability ([15]; first compound 1 µM): 0.752
- relative viability ([16]; first compound 0.01 µM): 0.329
- relative viability ([16]; first compound 0.03162 µM): 0.376
- relative viability ([16]; first compound 0.1 µM): 0.296
- relative viability ([16]; first compound 0.3162 µM): 0.331
- relative viability ([16]; first compound 1 µM): 0.284
- relative viability ([17]; first compound 0.01 µM): 0.451
- relative viability ([17]; first compound 0.03162 µM): 0.427
- relative viability ([17]; first compound 0.1 µM): 0.442
- relative viability ([17]; first compound 0.3162 µM): 0.415
- relative viability ([17]; first compound 1 µM): 0.434
- relative viability ([18]; first compound 0.01 µM): 0.274
- relative viability ([18]; first compound 0.03162 µM): 0.29
- relative viability ([18]; first compound 0.1 µM): 0.328
- relative viability ([18]; first compound 0.3162 µM): 0.344
- relative viability ([18]; first compound 1 µM): 0.27
- relative viability ([19]; first compound 0.01 µM): 0.978
- relative viability ([19]; first compound 0.03162 µM): 1.02
- relative viability ([19]; first compound 0.1 µM): 1.01
- relative viability ([19]; first compound 0.3162 µM): 1.1
- relative viability ([19]; first compound 1 µM): 1.03
- relative viability ([20]; first compound 0.01 µM): 0.475
- relative viability ([20]; first compound 0.03162 µM): 0.501
- relative viability ([20]; first compound 0.1 µM): 0.441
- relative viability ([20]; first compound 0.3162 µM): 0.356
- relative viability ([20]; first compound 1 µM): 0.156
- relative viability ([21]; first compound 0.01 µM): 0.359
- relative viability ([21]; first compound 0.03162 µM): 0.404
- relative viability ([21]; first compound 0.1 µM): 0.437
- relative viability ([21]; first compound 0.3162 µM): 0.493
- relative viability ([21]; first compound 1 µM): 0.493
- relative viability ([22]; first compound 0.01 µM): 1.01
- relative viability ([22]; first compound 0.03162 µM): 1.11
- relative viability ([22]; first compound 0.1 µM): 0.895
- relative viability ([22]; first compound 0.3162 µM): 0.959
- relative viability ([22]; first compound 1 µM): 0.536
- relative viability ([23]; first compound 0.01 µM): 0.661
- relative viability ([23]; first compound 0.03162 µM): 0.568
- relative viability ([23]; first compound 0.1 µM): 0.531
- relative viability ([23]; first compound 0.3162 µM): 0.454
- relative viability ([23]; first compound 1 µM): 0.283
